Test [1] concerns ConA-induced hepatitis in BALB/c mice. Nature of the test: ConA-induced hepatitis in mice. The format is in vivo, mouse. The following applies: IP 30 min before ConA 20 mg kg^−1 IV, 8 h after ConA, rolipram 10 mg kg^−1, GRMS-55 and (±)-LSF 50 mg kg^−1, vs control group. The protocol:
ConA was dissolved in an appropriate volume of saline for injections to obtain a concentration of 2 mg mL^−1. Each of the investigated compounds was dissolved in a vehicle composed of DMSO and PEG 400 mixed at a ratio of 1:9 (v/v). Thirty minutes before ConA administration, mice were injected intraperitoneally (IP) with the investigated compounds dissolved in the vehicle at a dose of 50 mg kg^−1 or with the corresponding volume of vehicle alone in the case of control group. ConA was administered by IV route at a dose of 20 mg kg^−1 and 8 h later mice were sacrificed. Blood samples were harvested from each individual and allowed to clot for 30 min at room temperature. Subsequently, serum was separated by centrifugation (3000 x g, 10 min), collected, and stored at −80°C until analysis.
(§1) TNF-α levels in LPS-stimulated rat blood in vitro and in rat plasma samples from the in vivo studies were analyzed by the Rat TNF-α Quantikine ELISA Immunoassay Kit (R&D Systems, USA) according to the manufacturer’s instructions. The assay was linear at the range of 12.5–800 pg mL^−1. Levels of TNF-α in mice serum were measured by ELISA Kits for Tumor Necrosis Factor Alpha (Cloud-Clone Corp., USA). This assay was linear at the range of 15.6–1000 pg mL^−1. Absorbance was measured at 450 nm using a POLARstar Omega multi-mode microplate reader (BMG LABTECH, Germany).
Serum […] (AST) and alanine transaminase (ALT) activity was analyzed using the chemistry analyzer BS-800 (Shenzhen Mindray Bio-medical Electronics Co. ltd, China).

The test system of test [2] is collagen-induced arthritis (CIA) in female Lewis rats. The experiment in a line: Collagen-induced arthritis in rats, paw swelling, PK/PD/DIS progression model. Type of test: in vivo, rat. Particulars: for decrease of relative paw swelling: at the last observation time point, once daily from day 20: rolipram 10 mg kg^−1 IP, GRMS-55 50 mg kg^−1 IP, (±)-LSF 80 mg kg^−1 SC. The method, then:
The emulsion of collagen was prepared according to the Protocol for the Successful Induction of Collagen-Induced Arthritis (CIA) in Rats (Chondrex Inc., 2015). Porcine type II collagen dissolved in 0.05 M acetic acid was emulsified with incomplete Freund’s adiuvant (Sigma Aldrich, Germany) using an Omni TH Homogenizer (Omni International, Inc., USA) consisting of a blade with 5 mm diameter. The collagen solution was previously mixed with IFA at a low speed for 1 min and then at the highest speed for 2 min. Then emulsion was being cooled for 5 min in an ice water bath. The emulsification process was repeated 3 times to obtain a stiff emulsion. The emulsion was then transferred into a Hamilton glass syringe, kept at 4°C, and used within 2 h.
At a day 0 of the experiment animals were subcutaneously (SC) injected at the base of the tail with 200 μL of the emulsion using a 27 gauge × 5/8″ needle and Hamilton syringe. At day 7 after the initial immunization, a booster injection with 100 μL of emulsion was performed. Ninety % of rats developed symptoms of disease (paw swelling >150% of day 0) at day 20 of the experiment. At this day, diseased animals were randomly divided into five groups (n = 6). […] One investigated group received (±)-LSF dissolved in saline at an SC dose of 80 mg kg^−1 once daily. The corresponding control groups were administered with appropriate volumes of vehicles IP or SC. At day 40 animals were sacrificed. Hind paws of rats were taken and immersed into 4% buffered formalin solution for a subsequent histological analysis. Blood samples were collected and allowed to clot for 20 min and then centrifuged at 2000 x g for 15 min. Serum samples were collected and frozen at -80°C.
Paw edema of arthritic rats was assessed as swelling of the rat hind paws. Measurements of paws were performed using a digital caliper according to the procedure described by Earp et al. ([18]). Each hind leg was measured at two sections, i.e., paw and ankle, and each section was measured at two places (side-to-side and top-to-bottom). The area of each section (elliptical in shape) was calculated from the following equation:2 Area=π·a·b/4 where (a) is side-to-side diameter of the ellipse and (b) is top-to-bottom diameter of the ellipse. Paw and ankle section areas of each leg were subsequently added to obtain one overall measure for the rat hind paw (Areaoverall). Each of these measures was normalized to the same hind paw area measured at day 0 of the experiment (Areazero) to reduce variation in the disease progression resulting from differences in paw size of each rat. Relative paw swelling (Paw) was calculated according to the equation:3 Paw=Areaoverall/Areazero
Paw size was measured at days 0, 5, 7, 11, 15, 18, 20, 22, 26, 30, 33, and 36 after the first immunization. […]

Test [3] deals with TNF-α release from LPS-stimulated whole rat blood. The experiment in a line: Inhibition of LPS-induced TNF-α release in whole rat blood. The format is cell-based. The protocol: Stimulation of whole rat blood by LPS was performed on 96-well plates. […] Contents of each well (200 μL) consisted of heparinized rat blood containing 10 U heparin mL^−1 diluted with RPMI-1640 medium at a ratio of 1:1 (v/v). All compounds were dissolved in DMSO and added to blood (the final DMSO concentration in blood was 0.5%) 15 min prior to the addition of LPS dissolved in RPMI-1640 medium to achieve the LPS concentration of 10 mg L^−1. Both, LPS and DMSO were also added to control wells at the same concentrations. Additional control samples (for testing baseline TNF-α levels in blood) consisted of DMSO (0.5%) without LPS. The incubation was performed at 37°C in a humidified atmosphere of 5% CO2 in an MCO-5 AC-PE incubator (PHCbi, Japan). After 6 h of incubation, the plates were centrifuged for 10 min using PlateFuge MicroCentrifuge (Benchmark Scientific, USA). The individual plasma samples were harvested and stored at −80°C until analysis.
as §1

The mark [4] stands for this setting: LPS 10 mg L^−1, 6 h incubation, compared to LPS-treated control.
[5] abbreviates: Rattus norvegicus, 480 h, read-out: IC50, concentration producing 50% of maximal inhibition (CIA progression), Final estimate (CV%).

Values after ≈ are worked out from the molar mass of the structure shown.

For `CC(O)CCCCn1c(=O)c2c(ncn2C)n(C)c1=O` (racemic) [(±)-LSF, lisofylline], in test [1], the “TNF-α release in mice serum (result in words)” value (“TNF-α release in mice serum” for short) is listed as “significantly reducing TNF-α levels” and the “activities of transaminases (ALT, AST) in mice sera (result in words)” value (“activities of transaminases (ALT, AST)” below) was “failed to decrease the activities of transaminases”. For the same compound, the “decrease of relative paw swelling” value in test [2] is recorded as 30.5%. The “Reduction of TNF-α levels in LPS-stimulated whole rat blood (result in words)” value (“Reduction of TNF-α levels” below) in test [3] (setting [4]) was “significantly and with similar potency reduced”.

As for `Cn1c(=O)c2c(nc(NCCc3ccccc3)n2CCCC(=O)NN=Cc2ccccc2O)n(C)c1=O` [GRMS-55, 4-(1,3-Dimethyl-2,6-dioxo-8-(phenethylamino)-2,3,6,7-tetrahydro-1H-purin-7-yl)-N′-(2-hydroxybenzylidene)butanehydrazide], in test [1], the “TNF-α release in mice serum” value was “most potently inhibited TNF-α release” and the “activities of transaminases (ALT, AST)” value was “significantly reduced”. In test [2] (setting [5]), the IC50 at 50 mg/kg is 0.26 mg/L (≈ 0.516 µM). The “decrease of relative paw swelling” value in test [2] stood at 31.5%. The “Reduction of TNF-α levels” value in test [3] (setting [4]) is on record as “did not exhibit activity”. Besides, the “Inhibition of TNF-α release in LPS-stimulated whole rat blood (result in words)” value in test [3] (levels of 50 and 250 μM, compared to the control wells) was “failed to inhibit TNF-α release”.

Regarding `COc1ccc(C2CNC(=O)C2)cc1OC1CCCC1` (centres unmarked) [Rolipram, rolipram], in test [1], the “TNF-α release in mice serum” value is on record as “most potently inhibited TNF-α release” and the “activities of transaminases (ALT, AST)” value is given as “significantly reduced”. For the same compound, the IC50 in test [2] (setting [5]) was 0.01 mg/L (≈ 0.0363 µM). The “Reduction of TNF-α levels” value in test [3] (concentration of 50 μM, compared to the control group) is reported as “completely reduced”.
